The assay concerns the target FabG4 (β-ketoacyl CoA reductase, EC 1.1.1.100) (Mycobacterium tuberculosis, UniProt I6Y778).

Each structure is given as a SMILES string.

The values below come from article PMC6045410 (ACS Omega, 2017).

Consider `COc1ccc(C(c2ccc(OCCN(C(C)C)C(C)C)cc2)c2cccs2)cc1` (racemic) [S-S006-830, diisopropyl-(2-{4-[(R,S)-(4-methoxy-phenyl)-thiophen-2-yl-methyl]-phenoxy}-ethyl)-amine (printed for the racemate S006-830)], for which the “affinity pull-down on compound-linked agarose beads, 2-DE, LC-MS-MS” value is given as “The pull-down of FabG4 by drug-affinity beads along with its overexpression by S-S006-830-resistant Mtb”.
